Measurements published in US6518278B1, “Carcinostatic substance for compatible administration, process of administrating same and process of rapidly inspecting same” (Debio Pharm S.A., priority 1994, dated 2003).
Entries after “also recorded” stand apart in the source; their conditions may differ.

How the values were obtained:
[1] = system: K 562 parent cells (human bone marrow leukemia); test: Extinction rate, OR 36-3 and cisplatin, K 562 parent cells; type: cell-based; conditions: 2 μg/ml of the cisplatin, single
Description: (§1) The extinction rates were measured in accordance with the same procedures of Example 2 except that K 562 parent cells (human bone marrow leukemia) and its cisplatin resistance cells (K652/CDDP) were employed in place of the human leutecyte strain cell employed in Comparative Example 1 and Example 2, and cisplatin was employed in place of the vincristin.

[2] = system: human leutecyte strain cell (RPMI-8402); test: Extinction effect of compatible administration of l-OHP and a compatible agent on tumor cells (compatible efficiency OE); type: cell-based; conditions: for Compatible Effects of l-OHP and Compatible Agent, Simultaneous Administration: both added day 1
Method in brief: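 RPMI-8402 cells (10^6/ml, 15% fetal bovine serum) got l-OHP (5 or 1 μg/ml) with a partner agent at high or low dose (e.g. cisplatin 1 or 0.5, 5-FU 10 or 5 μg/ml; irinotecan fixed at 10 μg/ml) on the same day or staggered days 1–4 in either order. Cell kill was corrected for the untreated control. A combination index of 85–115% was scored additive, >115% synergistic.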

[3] = system: cisplatin resistance cells (K652/CDDP); test: Extinction rate, OR 36-3 and cisplatin, cisplatin resistance cells; type: cell-based, human; conditions: 5 μg/ml of the cisplatin, single; resistance cells versus K 562 parent cells
Description: as §1

[4] = larger dosage of compatible agent (μg/ml: cisplatin 1, 5-FU 10, irinotecane 10, adriamycin 0.05, vincristin 0.05, vindecin 0.05, etoposide 1, bleomycin 10, mitoxantrone 0.1, mitomycine 1), l-OHP 1 μg/ml (5 μg/ml with irinotecane) added day 1
[5] = larger dosage of compatible agent added day 1 (μg/ml: cisplatin 1, 5-FU 10, irinotecane 10, adriamycin 0.05, vincristin 0.05, vindecin 0.05, etoposide 1, bleomycin 10, mitoxantrone 0.1, mitomycine 1), l-OHP 1 μg/ml (5 μg/ml with irinotecane)
[6] = smaller dosage of compatible agent (μg/ml: cisplatin 0.5, 5-FU 5, irinotecane 10, adriamycin 0.01, vincristin 0.01, vindecin 0.01, etoposide 0.5, bleomycin 1, mitoxantrone 0.05, mitomycine 0.5), l-OHP 1 μg/ml added day 1
[7] = smaller dosage of compatible agent added day 1 (μg/ml: cisplatin 0.5, 5-FU 5, irinotecane 10, adriamycin 0.01, vincristin 0.01, vindecin 0.01, etoposide 0.5, bleomycin 1, mitoxantrone 0.05, mitomycine 0.5), l-OHP 1 μg/ml

N.N.[Cl][Pt][Cl] [cisplatin]
extinction rate of the parent cells relative to that of the resistance cells [1]: about twice | compatible administration effect with l-OHP, summary in words ([2]; compatible administration with l-OHP): the additive effect or the synergistic effect regardless of the administration method and the dosage in almost all the cases; also recorded: synergistic effects can be obtained in all the cases when the cisplatin and the l-OHP are simultaneously administrated and the l-OHP is administrated before the cisplatin; also recorded: effect about twice the expected value is obtained in most cases when the l-OHP administration is preceded and the cisplatin is added later | Compatible Effects of l-OHP and Compatible Agent, Time Lag Administration, Addition Administration of Compatible Agent day 2 [2, 4]: • (•: Synergistic Effect) | Compatible Effects of l-OHP and Compatible Agent, Time Lag Administration, Addition Administration of Compatible Agent day 3 [2, 4]: • (•: Synergistic Effect) | Compatible Effects of l-OHP and Compatible Agent, Time Lag Administration, Addition Administration of Compatible Agent day 4 [2, 4]: • (•: Synergistic Effect) | Compatible Effects of l-OHP and Compatible Agent, Simultaneous Administration ([2]; larger dosage of compatible agent (μg/ml: cisplatin 1, 5-FU 10, irinotecane 10, adriamycin 0.05, vincristin 0.05, vindecin 0.05, etoposide 1, bleomycin 10, mitoxantrone 0.1, mitomycine 1), l-OHP 1 μg/ml (5 μg/ml with irinotecane)): • (•: Synergistic Effect) | Compatible Effects of l-OHP and Compatible Agent, Time Lag Administration, Addition Administration of l-OHP day 2 [2, 5]: • (•: Synergistic Effect) | Compatible Effects of l-OHP and Compatible Agent, Time Lag Administration, Addition Administration of l-OHP day 3 [2, 5]: ◯ (◯: Additive Effect) | Compatible Effects of l-OHP and Compatible Agent, Time Lag Administration, Addition Administration of l-OHP day 4 [2, 5]: ◯ (◯: Additive Effect) | Compatible Effects of l-OHP and Compatible Agent, Time Lag Administration, Addition Administration of Compatible Agent day 2 [2, 6]: • (•: Synergistic Effect) | Compatible Effects of l-OHP and Compatible Agent, Time Lag Administration, Addition Administration of Compatible Agent day 3 [2, 6]: • (•: Synergistic Effect) | Compatible Effects of l-OHP and Compatible Agent, Time Lag Administration, Addition Administration of Compatible Agent day 4 [2, 6]: • (•: Synergistic Effect) | Compatible Effects of l-OHP and Compatible Agent, Simultaneous Administration ([2]; smaller dosage of compatible agent (μg/ml: cisplatin 0.5, 5-FU 5, irinotecane 10, adriamycin 0.01, vincristin 0.01, vindecin 0.01, etoposide 0.5, bleomycin 1, mitoxantrone 0.05, mitomycine 0.5), l-OHP 1 μg/ml): ◯ (◯: Additive Effect) | Compatible Effects of l-OHP and Compatible Agent, Time Lag Administration, Addition Administration of l-OHP day 2 [2, 7]: Δ (Δ: Below Additive Effect) | Compatible Effects of l-OHP and Compatible Agent, Time Lag Administration, Addition Administration of l-OHP day 3 [2, 7]: Δ (Δ: Below Additive Effect) | Compatible Effects of l-OHP and Compatible Agent, Time Lag Administration, Addition Administration of l-OHP day 4 [2, 7]: Δ (Δ: Below Additive Effect) | extinction rates against the parent cells and the resistance cells compared [3]: substantially the same as each other
